Read-outs that look alike come from different tables or passages of the source.
Columns and labels:
CYP2D6 = target: T1, CYP2D6 (Homo sapiens, UniProt P10635); assay: Human liver microsome CYP inhibition assay, CYP2D6; assay type: in vitro ADME
T1 construct: Mixed human liver microsomes (HLM) were purchased from Corning Inc; tissue Corning Inc; host or cells: pooled (mixed) human liver microsomes
Description: (§1) Experimental objective: To evaluate the inhibitory activity of the test substance on human liver microsomal cytochrome P450 isoenzymes (CYP1A2, CYP2C9, CYP2C19, CYP2D6, CYP3A4) using a 5-in-1 probe substrate for CYP isoenzymes.
(§2) Mixed human liver microsomes (HLM) were purchased from Corning Inc. (Steuben, New York, USA) and stored at temperatures below -70°C prior to use.
(§3) The working solution of the test substance, which had been diluted to a series of concentrations, was added to an incubation system containing human liver microsomes, probe substrates, and auxiliary factors of the circulatory system. A control containing solvent but no test substance served as an enzyme activity control (100%). The concentration of metabolites produced from probe substrates in the samples was determined using Liquid Chromatography-Tandem Mass Spectrometry (LC-MS/MS) method. Non-linear regression analysis of the average percentage activity of the test substance against its concentration was conducted using SigmaPlot (V.11). The IC50 values were calculated using a three-parameter or four-parameter inverse log equation. Table 10: Cytochrome P450 isoenzyme half maximal inhibitory concentration IC50 (µM)

in vitro [1] = conditions: human, microsomes
in vitro [2] = conditions: rat, plasma
CYP2C19 = target: T2, CYP2C19 (Homo sapiens, UniProt P33261); assay: Human liver microsome CYP inhibition assay, CYP2C19; assay type: in vitro ADME
T2 construct: Mixed human liver microsomes (HLM) were purchased from Corning Inc; tissue Corning Inc; host or cells: pooled (mixed) human liver microsomes
Description: as §1, §2, §3

human CYP11B1 = target: T3, human CYP11B1 (Homo sapiens, UniProt P15538); assay: In vitro activity assay of monoclonal cells overexpressing human CYP11B1; assay type: cell-based; conditions: G402 cells overexpressing human CYP11B1; 1 µM 11-deoxycortisol, 16 hours; cortisol by LC-MS/MS
T3 construct: expressed in transfected cells; host or cells: human renal leiomyoma G402 cells (monoclonal)
T3 sequence (P15538 25-503): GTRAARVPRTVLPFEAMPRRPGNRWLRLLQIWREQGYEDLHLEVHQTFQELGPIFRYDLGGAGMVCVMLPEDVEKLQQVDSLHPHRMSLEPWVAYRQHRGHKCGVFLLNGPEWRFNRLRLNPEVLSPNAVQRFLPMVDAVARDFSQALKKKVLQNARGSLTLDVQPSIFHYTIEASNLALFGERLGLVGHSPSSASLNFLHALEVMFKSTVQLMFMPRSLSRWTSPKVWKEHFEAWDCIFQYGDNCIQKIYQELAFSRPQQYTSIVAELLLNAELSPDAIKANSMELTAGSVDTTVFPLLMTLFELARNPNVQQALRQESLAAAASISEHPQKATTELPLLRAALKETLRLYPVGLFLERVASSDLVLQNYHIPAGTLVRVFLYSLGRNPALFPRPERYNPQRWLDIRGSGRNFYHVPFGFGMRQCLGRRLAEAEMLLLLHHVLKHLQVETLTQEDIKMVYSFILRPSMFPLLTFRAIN
Description: The human renal leiomyoma G402 cell line overexpressing human CYP11B1 was selected to serve as a compound selectivity screening system.
Day 1: Cells were digested, and human renal leiomyoma G402 cells overexpressing CYP11B1 were resuspended to 1×10^5 cells/mL, with 100 µL seeded into a 96-well plate.
(§4) Day 3: The cell supernatant was collected and added to 200 µL of a methanol solution containing internal standards (internal standards: 35 ng/mL ketoprofen or 7.5 ng/mL carbamazepine or 5 ng/mL diphenhydramine or 10 ng/mL tolbutamide). The mixture was vortexed and centrifuged (4000×g, 4°C, 5 minutes). Then, 100 µL of the supernatant was taken and mixed with 100 µL of pure water.
Ratio = Cortisol peak area/Internal standard peak area [formula] Control activity% = (Ratiotestcompound/RatioDMSO) × 100% [formula]
(§5) "Ratio test compound" represents the Ratio values at different concentrations of the test compound.
(§6) "Ratio DMSO" represents the Ratio value without the addition of the test compound. • X = Log (compound concentration) • Y = Control activity%
The IC50 of the test compound was determined by fitting to a nonlinear regression equation using XLfit 5.5.0. Table 4: Results for in vitro activity assay of monoclonal cells overexpressing human CYP11B1

in vitro [3] = conditions: cynomolgus monkey, plasma
human CYP11B2 = target: T4, human CYP11B2 (Homo sapiens, UniProt P19099); assay: In vitro activity assay of monoclonal cells overexpressing human CYP11B2; assay type: cell-based; conditions: G402 cells overexpressing human CYP11B2; 1 µM 11-deoxycorticosterone, 16 hours; aldosterone by LC-MS/MS
T4 construct: expressed in transfected cells; host or cells: human renal leiomyoma G402 cells (monoclonal)
T4 sequence (P19099 25-503): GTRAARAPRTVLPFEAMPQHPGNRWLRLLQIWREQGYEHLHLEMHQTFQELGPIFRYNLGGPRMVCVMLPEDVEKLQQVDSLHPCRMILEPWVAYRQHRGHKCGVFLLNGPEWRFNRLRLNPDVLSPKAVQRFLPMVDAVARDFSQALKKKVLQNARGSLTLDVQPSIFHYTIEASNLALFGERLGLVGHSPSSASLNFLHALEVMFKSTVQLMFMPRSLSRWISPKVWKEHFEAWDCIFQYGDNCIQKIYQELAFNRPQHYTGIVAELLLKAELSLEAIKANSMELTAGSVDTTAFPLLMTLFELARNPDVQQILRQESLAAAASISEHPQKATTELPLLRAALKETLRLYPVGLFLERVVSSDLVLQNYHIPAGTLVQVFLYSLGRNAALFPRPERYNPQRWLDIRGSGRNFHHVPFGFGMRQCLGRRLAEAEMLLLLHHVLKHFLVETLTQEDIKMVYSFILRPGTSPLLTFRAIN
Description: The human renal leiomyoma G402 cell line overexpressing human CYP11B2 was selected to serve as a compound activity screening system. Table 1: Cell and reagent information
2) Compound details: The test compound was prepared as a 10 µM working concentration using DMSO. 3) Experimental procedure
Day 1: Cells were digested, and human renal leiomyoma G402 cells overexpressing human CYP11B2 were resuspended to 1×10^5 cells/mL, with 100 µL seeded into a 96-well plate.
as §4
Ratio = Aldosterone peak area/Internal standard peak area [formula] Control activity% = (Ratiotestcompound/RatioDMSO) × 100% [formula]
as §5, §6
The IC50 of the test compound was determined by fitting to a nonlinear regression equation using XLfit 5.5.0. Table 3: Results for in vitro activity assay of monoclonal cells overexpressing human CYP11B2

CYP2C9 = target: T5, CYP2C9 (Homo sapiens, UniProt P11712); assay: Human liver microsome CYP inhibition assay, CYP2C9; assay type: in vitro ADME
T5 construct: Mixed human liver microsomes (HLM) were purchased from Corning Inc; tissue Corning Inc; host or cells: pooled (mixed) human liver microsomes
Description: as §1, §2, §3

CYP1A2 = target: T6, CYP1A2 (Homo sapiens, UniProt P05177); assay: Human liver microsome CYP inhibition assay, CYP1A2; assay type: in vitro ADME
T6 construct: Mixed human liver microsomes (HLM) were purchased from Corning Inc; tissue Corning Inc; host or cells: pooled (mixed) human liver microsomes
Description: as §1, §2, §3

CYP3A4 = target: T7, CYP3A4 (Homo sapiens, UniProt P08684); assay: Human liver microsome CYP inhibition assay, CYP3A4; assay type: in vitro ADME
T7 construct: Mixed human liver microsomes (HLM) were purchased from Corning Inc; tissue Corning Inc; host or cells: pooled (mixed) human liver microsomes
Description: as §1, §2, §3

T2 sequence (P33261 whole entry): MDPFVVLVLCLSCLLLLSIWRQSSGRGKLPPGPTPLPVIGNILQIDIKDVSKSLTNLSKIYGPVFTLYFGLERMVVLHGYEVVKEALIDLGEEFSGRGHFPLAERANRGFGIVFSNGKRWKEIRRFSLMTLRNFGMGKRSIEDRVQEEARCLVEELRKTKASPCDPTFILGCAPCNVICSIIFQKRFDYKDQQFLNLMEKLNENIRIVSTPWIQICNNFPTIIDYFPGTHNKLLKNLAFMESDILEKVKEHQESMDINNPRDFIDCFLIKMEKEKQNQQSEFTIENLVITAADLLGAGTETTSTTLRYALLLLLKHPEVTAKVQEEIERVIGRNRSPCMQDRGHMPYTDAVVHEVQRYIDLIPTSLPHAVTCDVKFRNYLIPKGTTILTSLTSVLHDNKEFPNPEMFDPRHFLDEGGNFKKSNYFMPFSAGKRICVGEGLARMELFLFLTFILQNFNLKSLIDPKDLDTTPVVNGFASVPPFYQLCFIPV
T7 sequence (P08684 whole entry): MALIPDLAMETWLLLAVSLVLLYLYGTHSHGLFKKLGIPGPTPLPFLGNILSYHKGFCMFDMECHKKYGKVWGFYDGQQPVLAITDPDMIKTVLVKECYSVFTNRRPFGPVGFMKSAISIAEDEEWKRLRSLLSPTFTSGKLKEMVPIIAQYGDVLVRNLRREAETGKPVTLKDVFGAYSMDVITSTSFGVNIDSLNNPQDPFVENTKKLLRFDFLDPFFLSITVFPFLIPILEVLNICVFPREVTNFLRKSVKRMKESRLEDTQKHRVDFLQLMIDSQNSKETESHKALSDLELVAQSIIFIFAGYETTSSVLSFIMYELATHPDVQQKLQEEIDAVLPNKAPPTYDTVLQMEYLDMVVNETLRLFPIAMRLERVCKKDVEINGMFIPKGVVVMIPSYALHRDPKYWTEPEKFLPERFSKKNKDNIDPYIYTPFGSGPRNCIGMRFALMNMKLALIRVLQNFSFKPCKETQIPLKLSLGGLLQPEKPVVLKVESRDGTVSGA
T6 sequence (P05177 whole entry): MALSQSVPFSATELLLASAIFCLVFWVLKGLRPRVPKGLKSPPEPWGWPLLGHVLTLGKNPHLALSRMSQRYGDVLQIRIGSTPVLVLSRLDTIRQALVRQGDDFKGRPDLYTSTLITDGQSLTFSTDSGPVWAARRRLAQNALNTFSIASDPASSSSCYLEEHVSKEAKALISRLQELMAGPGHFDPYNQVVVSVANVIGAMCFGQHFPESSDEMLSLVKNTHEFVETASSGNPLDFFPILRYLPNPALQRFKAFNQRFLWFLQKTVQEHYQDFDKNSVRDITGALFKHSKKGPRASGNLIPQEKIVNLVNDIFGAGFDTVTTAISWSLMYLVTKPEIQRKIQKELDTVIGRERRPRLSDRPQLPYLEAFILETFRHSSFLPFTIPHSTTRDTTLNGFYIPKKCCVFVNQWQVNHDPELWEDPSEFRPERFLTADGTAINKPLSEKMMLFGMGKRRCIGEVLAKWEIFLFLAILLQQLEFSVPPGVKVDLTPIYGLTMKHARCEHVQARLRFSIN
T5 sequence (P11712 whole entry): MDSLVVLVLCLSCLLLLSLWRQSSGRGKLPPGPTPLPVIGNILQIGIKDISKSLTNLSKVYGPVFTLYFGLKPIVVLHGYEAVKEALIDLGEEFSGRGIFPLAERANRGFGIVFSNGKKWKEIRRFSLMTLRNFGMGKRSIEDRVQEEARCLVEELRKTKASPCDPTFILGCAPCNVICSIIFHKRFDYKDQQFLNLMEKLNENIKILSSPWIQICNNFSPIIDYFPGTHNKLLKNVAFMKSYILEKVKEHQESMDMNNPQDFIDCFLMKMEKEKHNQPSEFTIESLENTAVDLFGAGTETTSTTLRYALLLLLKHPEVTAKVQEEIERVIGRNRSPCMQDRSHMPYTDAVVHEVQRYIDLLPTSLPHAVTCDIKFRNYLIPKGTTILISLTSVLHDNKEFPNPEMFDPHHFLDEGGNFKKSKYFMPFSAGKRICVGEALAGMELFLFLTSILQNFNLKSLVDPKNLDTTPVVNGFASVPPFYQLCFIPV
T1 sequence (P10635 whole entry): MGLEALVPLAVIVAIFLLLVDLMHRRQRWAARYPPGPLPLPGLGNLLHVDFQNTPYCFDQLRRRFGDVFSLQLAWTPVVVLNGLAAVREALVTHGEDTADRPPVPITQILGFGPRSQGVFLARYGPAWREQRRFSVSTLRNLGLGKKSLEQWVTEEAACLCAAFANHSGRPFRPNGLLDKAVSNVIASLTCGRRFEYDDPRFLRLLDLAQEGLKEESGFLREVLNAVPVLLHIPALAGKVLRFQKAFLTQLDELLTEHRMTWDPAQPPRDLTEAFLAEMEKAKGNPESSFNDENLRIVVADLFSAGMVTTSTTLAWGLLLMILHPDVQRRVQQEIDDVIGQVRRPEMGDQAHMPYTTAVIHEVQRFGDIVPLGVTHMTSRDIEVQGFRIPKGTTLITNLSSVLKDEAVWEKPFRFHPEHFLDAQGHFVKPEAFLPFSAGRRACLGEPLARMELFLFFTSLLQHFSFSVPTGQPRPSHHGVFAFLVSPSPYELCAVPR

Row | SMILES | IC50 (CYP2D6) | CLint scaled at 1 µM (in vitro [1]) | fraction unbound at 4 h, 2 µM (in vitro [2]) | IC50 (CYP2C19) | IC50 (human CYP11B1) | fraction unbound at 4 h, 2 µM (in vitro [3]) | IC50 (human CYP11B2) | IC50 (CYP2C9) | IC50 (CYP1A2) | IC50 (CYP3A4) | IC50 (CYP2D6; mixed human liver microsomes, 5-in-1 probe substrate, read-out: Cytochrome P450 isoenzyme half maximal inhibitory concentration IC50 (µM) CYP2D6) | IC50 (CYP2C19; mixed human liver microsomes, 5-in-1 probe substrate, read-out: Cytochrome P450 isoenzyme half maximal inhibitory concentration IC50 (µM) CYP2C19) | IC50 (CYP2C9; mixed human liver microsomes, 5-in-1 probe substrate, read-out: Cytochrome P450 isoenzyme half maximal inhibitory concentration IC50 (µM) CYP2C9) | IC50 (CYP1A2; mixed human liver microsomes, 5-in-1 probe substrate, read-out: Cytochrome P450 isoenzyme half maximal inhibitory concentration IC50 (µM) CYP1A2) | IC50 (CYP3A4; mixed human liver microsomes, 5-in-1 probe substrate, read-out: Cytochrome P450 isoenzyme half maximal inhibitory concentration IC50 (µM) CYP3A4)
1 | CCC(=O)NC1CCCc2c(-c3cc4c(s3)N(C)C(=O)CC4)cncc21 (single isomer, unassigned) [Compound 017] | > 50 µM | < 8.6 mL/min/kg | 0.051 | > 50 µM | 0.322 µM | 0.219 | 0.00209 µM | 45.1 µM | > 50 µM | > 50 µM |  |  |  |  | 
2 | CCC(=O)N[C@@H]1CCCc2c(-c3ccc4c(ccc(=O)n4C)c3)cncc21 (single isomer, unassigned) [Compound 001] |  |  |  |  | 2.47 µM |  | 0.012 µM |  |  |  | > 50 µM | > 50 µM | > 50 µM | > 50 µM | > 50 µM
3 | CCC(=O)NC1CCCc2c(-c3cc4ccc(=O)n(C)c4s3)cncc21 (single isomer, unassigned) [Compound 023] | > 50 µM | < 8.6 mL/min/kg | 0.096 | > 50 µM | 1.74 µM | 0.31 | 0.0125 µM | > 50 µM | > 50 µM | > 50 µM |  |  |  |  | 

From EP4711361A1, “NITROGEN-CONTAINING HETEROCYCLIC COMPOUND AND USE THEREOF” (Jiangsu Deyuan Pharmaceutical Co.,Ltd., priority 2023, dated 2024)
